Results: ChEMBL document CHEMBL4673362, “Design, synthesis, and biological evaluation of 2,6,7-substituted pyrrolo[2,3-d]pyrimidines as cyclin dependent kinase inhibitor in pancreatic cancer cells” (Bioorg Med Chem Lett, 2021)
pIC50: −log10 of the molar value. ≈ marks a conversion by molar mass, not a printed value. Calls of active or inactive are those of the source. The calls are words filed in the database; no cut-off is given here.

How the values were obtained:
[1] = biological target: Cyclin-dependent kinase 4/cyclin D1 (Homo sapiens, UniProt P11802); assay: Inhibition of CDK4/cyclin D1 (unknown origin); assay type: protein-complex assay
[2] = system: MIA PaCa-2; assay: Antiproliferative activity against human MIA PaCa-2 cells assessed as inhibition of cell growth by MTT assay; assay type: functional, cell-based
[3] = system: BXPC-3; assay: Antiproliferative activity against human BxPC-3 cells assessed as inhibition of cell growth by MTT assay; assay type: functional, cell-based
[4] = biological target: CDK6/cyclin D1 (Homo sapiens, UniProt Q00534); assay: Inhibition of CDK6/cyclin D1 (unknown origin); assay type: protein-complex assay
[5] = biological target: Cyclin-dependent kinase 6 (Homo sapiens) (UniProt Q00534); assay: Inhibition of CDK6 (unknown origin) at 1 uM
[6] = biological target: Cyclin-dependent kinase 4 (Homo sapiens) (UniProt P11802); assay: Inhibition of CDK4 (unknown origin) at 1 uM
[7] = biological target: Cyclin-dependent kinase 2 (Homo sapiens) (UniProt P24941); assay: Inhibition of CDK2 (unknown origin) at 1 uM
[8] = biological target: Calcium/calmodulin-dependent protein kinase type 1 (Homo sapiens) (UniProt Q14012); assay: Inhibition of human CAMK1 at 1 uM relative to control
[9] = biological target: Cyclin-dependent kinase 3 (Homo sapiens) (UniProt Q00526); assay: Inhibition of CDK3 (unknown origin) at 1 uM
[10] = biological target: CDK6/cyclin D1 (Homo sapiens) (UniProt P24385+Q00534); assay: Inhibition of human CDK6/cyclin D1 at 1 uM relative to control; assay type: protein-complex assay
[11] = biological target: Cyclin-dependent kinase 5 (Homo sapiens) (UniProt Q00535); assay: Inhibition of CDK5 (unknown origin) at 1 uM
[12] = biological target: Cyclin-dependent kinase 7 (Homo sapiens) (UniProt P50613); assay: Inhibition of CDK7 (unknown origin) at 1 uM
[13] = biological target: Cyclin-dependent kinase 8 (Homo sapiens) (UniProt P49336); assay: Inhibition of CDK8 (unknown origin) at 1 uM
[14] = biological target: Dual specificity protein kinase TTK (Homo sapiens) (UniProt P33981); assay: Inhibition of human TTK at 1 uM relative to control
[15] = biological target: Cyclin-dependent kinase 1 (Homo sapiens) (UniProt P06493); assay: Inhibition of CDK1 (unknown origin) at 1 uM
[16] = biological target: Tyrosine-protein kinase Fer (Homo sapiens) (UniProt P16591); assay: Inhibition of human FER at 1 uM relative to control
[17] = biological target: CDK4/Cyclin D3 (Homo sapiens) (UniProt P11802+P30281); assay: Inhibition of human CDK4/cyclin D3 at 1 uM relative to control; assay type: protein-complex assay
[18] = biological target: Mitogen-activated protein kinase kinase kinase 9 (Homo sapiens) (UniProt P80192); assay: Inhibition of human MLK1 at 1 uM relative to control
[19] = biological target: Cyclin-dependent kinase 9 (Homo sapiens) (UniProt P50750); assay: Inhibition of CDK9 (unknown origin) at 1 uM
[20] = biological target: Calcium/calmodulin-dependent protein kinase kinase 1 (Homo sapiens) (UniProt Q8N5S9); assay: Inhibition of human CAMKKA at 1 uM relative to control
[21] = biological target: Cyclin-dependent kinase 4/cyclin D1 (Homo sapiens) (UniProt P11802+P24385); assay: Inhibition of human CDK4/cyclin D1 at 1 uM relative to control; assay type: protein-complex assay
[22] = Permeability of the compound at pH 5.0 by PAMPA; assay type: ADME; conditions: read-out: permeability
[23] = system: MIA PaCa-2; assay: Cell cycle arrest in human MIA PaCa-2 cells assessed as accumulation at G2 phase at 1.6 uM (reference value: 10.64 %); assay type: functional
[24] = system: MIA PaCa-2; assay: Cell cycle arrest in human MIA PaCa-2 cells assessed as accumulation at S phase at 0.8 uM (reference value: 45.27 %); assay type: functional
[25] = system: MIA PaCa-2; assay: Cell cycle arrest in human MIA PaCa-2 cells assessed as accumulation at G2 phase at 0.8 uM (reference value: 10.64 %); assay type: functional
[26] = biological target: Cyclin-dependent kinase 9 (Homo sapiens) (UniProt P50750); assay: Inhibition of CDK9 (unknown origin) at 1 uM relative to control
[27] = system: MIA PaCa-2; assay: Cell cycle arrest in human MIA PaCa-2 cells assessed as accumulation at S phase at 1.6 uM (reference value: 45.27 %); assay type: functional
[28] = system: MIA PaCa-2; assay: Cell cycle arrest in human MIA PaCa-2 cells assessed as accumulation at G2 phase at 2.5 uM (reference value: 10.64 %); assay type: functional
[29] = system: MIA PaCa-2; assay: Cell cycle arrest in human MIA PaCa-2 cells assessed as accumulation at G1 phase at 2.5 uM (reference value: 44.09 %); assay type: functional
[30] = Permeability of the compound at pH 7.4 by PAMPA; assay type: ADME; conditions: read-out: permeability
[31] = system: MIA PaCa-2; assay: Cell cycle arrest in human MIA PaCa-2 cells assessed as accumulation at S phase at 2.5 uM (reference value: 45.27 %); assay type: functional
[32] = Metabolic stability in human liver microsomes assessed as half life; assay type: ADME, Microsome
[33] = Solubility of the compound at pH 7.4; assay type: physicochemical; conditions: buffer
[34] = system: MIA PaCa-2; assay: Cell cycle arrest in human MIA PaCa-2 cells assessed as accumulation at G1 phase at 1.6 uM (reference value: 44.09 %); assay type: functional
[35] = system: MIA PaCa-2; assay: Cell cycle arrest in human MIA PaCa-2 cells assessed as accumulation at G1 phase at 0.8 uM (reference value: 44.09 %); assay type: functional
[36] = Metabolic stability in rat liver microsomes assessed as half life; assay type: ADME, Microsome

Sequence of Cyclin-dependent kinase 4 (Homo sapiens) (P11802 whole entry): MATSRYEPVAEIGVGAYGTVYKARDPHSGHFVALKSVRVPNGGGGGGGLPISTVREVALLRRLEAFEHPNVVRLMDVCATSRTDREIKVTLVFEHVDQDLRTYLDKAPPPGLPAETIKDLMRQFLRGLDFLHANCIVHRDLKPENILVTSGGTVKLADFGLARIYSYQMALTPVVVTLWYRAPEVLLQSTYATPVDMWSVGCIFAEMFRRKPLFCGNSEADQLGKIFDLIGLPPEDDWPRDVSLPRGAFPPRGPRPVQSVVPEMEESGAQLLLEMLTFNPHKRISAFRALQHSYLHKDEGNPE
Sequence of Cyclin-dependent kinase 4/cyclin D1 (P11802 whole entry): as above
Sequence of Cyclin-dependent kinase 4/cyclin D1 (P24385 whole entry, further chain): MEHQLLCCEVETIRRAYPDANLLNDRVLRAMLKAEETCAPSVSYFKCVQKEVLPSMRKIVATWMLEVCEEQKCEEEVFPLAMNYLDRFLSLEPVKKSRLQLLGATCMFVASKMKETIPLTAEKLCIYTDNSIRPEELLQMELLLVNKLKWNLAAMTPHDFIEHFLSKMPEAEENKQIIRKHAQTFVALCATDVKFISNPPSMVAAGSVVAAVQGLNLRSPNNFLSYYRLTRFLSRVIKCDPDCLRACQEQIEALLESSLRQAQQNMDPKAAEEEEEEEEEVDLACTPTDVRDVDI
Sequence of Cyclin-dependent kinase 6 (Homo sapiens) (Q00534 whole entry): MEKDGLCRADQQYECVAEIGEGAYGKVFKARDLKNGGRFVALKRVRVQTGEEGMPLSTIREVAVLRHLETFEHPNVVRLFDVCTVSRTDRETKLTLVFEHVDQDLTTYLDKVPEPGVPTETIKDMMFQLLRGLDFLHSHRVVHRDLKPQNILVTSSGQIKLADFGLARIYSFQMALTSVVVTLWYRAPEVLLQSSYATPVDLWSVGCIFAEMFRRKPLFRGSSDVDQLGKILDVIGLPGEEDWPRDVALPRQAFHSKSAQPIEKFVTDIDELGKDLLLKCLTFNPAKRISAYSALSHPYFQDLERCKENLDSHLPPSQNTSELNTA
Sequence of CDK6/cyclin D1 (P24385 whole entry): as the sequence (P24385 whole entry, further chain) above
Sequence of CDK6/cyclin D1 (Q00534 whole entry): as the sequence (Q00534 whole entry) above
Sequence of Cyclin-dependent kinase 9 (Homo sapiens) (P50750 whole entry): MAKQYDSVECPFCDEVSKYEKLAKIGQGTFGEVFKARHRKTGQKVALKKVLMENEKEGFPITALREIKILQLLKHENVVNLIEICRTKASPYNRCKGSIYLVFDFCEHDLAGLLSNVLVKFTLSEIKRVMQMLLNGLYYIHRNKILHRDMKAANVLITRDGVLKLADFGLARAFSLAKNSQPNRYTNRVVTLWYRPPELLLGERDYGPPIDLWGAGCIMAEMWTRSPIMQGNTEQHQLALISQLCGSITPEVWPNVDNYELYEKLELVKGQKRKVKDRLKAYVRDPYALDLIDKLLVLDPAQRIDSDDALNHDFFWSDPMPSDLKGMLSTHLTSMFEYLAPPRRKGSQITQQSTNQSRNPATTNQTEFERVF
Sequence of Cyclin-dependent kinase 3 (Homo sapiens) (Q00526 whole entry, looked up): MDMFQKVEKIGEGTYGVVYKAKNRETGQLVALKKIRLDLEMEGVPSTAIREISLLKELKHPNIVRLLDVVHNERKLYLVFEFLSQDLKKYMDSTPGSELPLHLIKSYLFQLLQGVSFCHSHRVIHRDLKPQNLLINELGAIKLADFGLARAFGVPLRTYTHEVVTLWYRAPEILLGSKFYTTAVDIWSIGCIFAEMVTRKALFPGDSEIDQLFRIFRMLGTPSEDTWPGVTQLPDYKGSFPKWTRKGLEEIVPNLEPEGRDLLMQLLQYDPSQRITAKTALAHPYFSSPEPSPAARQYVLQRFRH
Sequence of Calcium/calmodulin-dependent protein kinase type 1 (Homo sapiens) (Q14012 whole entry, looked up): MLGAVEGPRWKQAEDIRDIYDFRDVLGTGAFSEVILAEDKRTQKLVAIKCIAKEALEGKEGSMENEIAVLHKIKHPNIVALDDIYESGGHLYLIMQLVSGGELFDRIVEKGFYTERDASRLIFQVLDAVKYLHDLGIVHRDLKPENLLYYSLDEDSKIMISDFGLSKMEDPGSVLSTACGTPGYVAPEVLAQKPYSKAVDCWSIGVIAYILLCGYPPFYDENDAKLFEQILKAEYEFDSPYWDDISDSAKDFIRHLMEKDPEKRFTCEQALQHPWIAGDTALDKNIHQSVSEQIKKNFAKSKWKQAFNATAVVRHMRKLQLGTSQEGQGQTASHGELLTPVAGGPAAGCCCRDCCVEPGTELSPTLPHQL
Sequence of Tyrosine-protein kinase Fer (Homo sapiens) (P16591 whole entry, looked up): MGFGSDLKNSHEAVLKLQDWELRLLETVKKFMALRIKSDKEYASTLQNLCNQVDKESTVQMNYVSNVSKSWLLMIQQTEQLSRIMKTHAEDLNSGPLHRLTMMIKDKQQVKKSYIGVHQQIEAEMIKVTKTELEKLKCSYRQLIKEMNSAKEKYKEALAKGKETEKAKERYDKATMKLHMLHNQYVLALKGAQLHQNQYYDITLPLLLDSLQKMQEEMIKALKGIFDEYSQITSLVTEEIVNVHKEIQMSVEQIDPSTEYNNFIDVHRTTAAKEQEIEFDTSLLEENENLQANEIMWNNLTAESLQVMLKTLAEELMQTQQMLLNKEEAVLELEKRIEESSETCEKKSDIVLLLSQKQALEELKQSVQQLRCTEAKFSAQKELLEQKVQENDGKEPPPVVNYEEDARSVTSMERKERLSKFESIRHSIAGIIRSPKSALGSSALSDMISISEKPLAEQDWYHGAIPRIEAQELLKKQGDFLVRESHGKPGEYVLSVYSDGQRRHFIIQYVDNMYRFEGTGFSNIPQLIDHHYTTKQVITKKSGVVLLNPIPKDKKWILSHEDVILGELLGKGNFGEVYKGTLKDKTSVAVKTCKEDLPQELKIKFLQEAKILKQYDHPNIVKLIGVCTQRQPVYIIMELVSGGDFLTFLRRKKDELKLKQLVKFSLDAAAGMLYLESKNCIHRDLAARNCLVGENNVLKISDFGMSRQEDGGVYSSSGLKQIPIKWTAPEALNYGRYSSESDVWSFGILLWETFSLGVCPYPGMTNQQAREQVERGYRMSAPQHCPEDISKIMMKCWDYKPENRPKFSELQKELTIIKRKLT
Sequence of Calcium/calmodulin-dependent protein kinase kinase 1 (Homo sapiens) (Q8N5S9 whole entry, looked up): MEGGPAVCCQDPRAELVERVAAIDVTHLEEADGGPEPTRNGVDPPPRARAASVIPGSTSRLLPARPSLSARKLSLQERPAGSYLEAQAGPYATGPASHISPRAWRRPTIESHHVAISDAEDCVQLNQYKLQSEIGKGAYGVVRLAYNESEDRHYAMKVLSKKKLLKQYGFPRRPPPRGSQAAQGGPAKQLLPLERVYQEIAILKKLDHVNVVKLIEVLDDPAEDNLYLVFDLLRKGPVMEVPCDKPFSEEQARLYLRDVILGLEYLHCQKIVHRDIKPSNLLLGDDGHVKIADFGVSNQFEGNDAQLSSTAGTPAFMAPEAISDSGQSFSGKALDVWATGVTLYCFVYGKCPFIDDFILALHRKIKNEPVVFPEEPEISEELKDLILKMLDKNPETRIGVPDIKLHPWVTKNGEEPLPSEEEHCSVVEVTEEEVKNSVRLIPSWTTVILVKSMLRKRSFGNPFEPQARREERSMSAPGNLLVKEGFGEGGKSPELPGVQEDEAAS
Sequence of Cyclin-dependent kinase 1 (Homo sapiens) (P06493 whole entry, looked up): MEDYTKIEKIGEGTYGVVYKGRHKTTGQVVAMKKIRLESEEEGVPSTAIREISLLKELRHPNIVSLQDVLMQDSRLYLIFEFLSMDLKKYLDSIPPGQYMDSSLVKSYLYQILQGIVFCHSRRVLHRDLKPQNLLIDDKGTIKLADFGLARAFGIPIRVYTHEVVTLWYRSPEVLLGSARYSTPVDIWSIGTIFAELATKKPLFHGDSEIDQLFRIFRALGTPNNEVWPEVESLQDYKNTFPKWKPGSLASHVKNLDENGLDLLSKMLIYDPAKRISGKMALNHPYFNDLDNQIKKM
Sequence of Cyclin-dependent kinase 5 (Homo sapiens) (Q00535 whole entry, looked up): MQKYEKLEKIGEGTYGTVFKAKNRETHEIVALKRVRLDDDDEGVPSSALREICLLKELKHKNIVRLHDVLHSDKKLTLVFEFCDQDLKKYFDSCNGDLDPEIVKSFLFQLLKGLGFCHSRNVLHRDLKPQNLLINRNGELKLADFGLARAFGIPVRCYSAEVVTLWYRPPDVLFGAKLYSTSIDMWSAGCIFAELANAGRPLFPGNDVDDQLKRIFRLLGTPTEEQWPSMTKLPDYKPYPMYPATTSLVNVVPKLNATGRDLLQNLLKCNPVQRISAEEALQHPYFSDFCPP

Structure (SMILES)	pIC50 [1]	pIC50 [2]	pIC50 [3]	pIC50 [4]	also measured
CCC(CO)Nc1ncc2cc(C(=O)N(C)C)n(C3CCCC3)c2n1 (stereo unspecified)	6.28	4.51	–	–	–
O=C(Nc1ccccc1)c1cc2cnc(Nc3ccc(N4CCNCC4)cn3)nc2n1C1CCCC1	7.54	5.55	5.29	7.20	inhibition [5]: Active; inhibition [6]: Active
O=C(Nc1ccccc1C(F)(F)F)c1cc2cnc(Nc3ccc(N4CCNCC4)cn3)nc2n1C1CCCC1	7.22	5.50	5.09	6.18	inhibition [5]: Active; inhibition [6]: Active
CCN1CCN(Cc2ccc(Nc3ncc(F)c(-c4cc(F)c5nc(C)n(C(C)C)c5c4)n3)nc2)CC1 [ABEMACICLIB]	–	5.24	–	–	–
COc1ccc(NC(=O)c2cc3cnc(Nc4ccc(N5CCNCC5)cn4)nc3n2C2CCCC2)cc1	6.92	5.54	5.05	6.41	–
O=C(Nc1ccccc1)c1cc2cnc(Nc3ccc(N4CCNCC4)cn3)nc2n1Cc1ccccc1	< 4.00	5.44	–	–	inhibition [7]: inactive; inhibition [8]: inactive; inhibition [5]: inactive; inhibition [9]: inactive; inhibition [10]: inactive; inhibition [11]: inactive; inhibition [12]: inactive; inhibition [13]: inactive; inhibition [14]: inactive; inhibition [15]: inactive; inhibition [16]: inactive; inhibition [17]: inactive; inhibition [18]: inactive; inhibition [19]: inactive; inhibition [20]: inactive; inhibition [6]: inactive; inhibition [21]: inactive
COc1cccc(NC(=O)c2cc3cnc(Nc4ccc(N5CCNCC5)cn4)nc3n2C2CCCC2)c1	7.27	5.58	4.98	6.77	–
CN(C)C(=O)c1cc2cnc(Nc3ccc(Cl)cc3)nc2n1C1CCCC1	6.84	4.89	–	–	–
Cc1cc(C)nc(NS(=O)(=O)c2ccc(Nc3ncc4cc(C(=O)N(C)C)n(C5CCCC5)c4n3)cc2)n1	6.82	5.08	–	–	Papp [22]: 443 ×10⁻⁶ cm/s; Activity [23]: 17.5%; Activity [24]: 36.86%; Activity [25]: 18.44%; inhibition [26]: 99%; Activity [27]: 39.11%; Activity [28]: 27.08%; Activity [29]: 35.53%; Papp [30]: 376 ×10⁻⁶ cm/s; Activity [31]: 37.29%; half-life [32]: 25.1 min; solubility [33]: 7.5 µg/mL (≈ 14 µM); Activity [34]: 43.39%; Activity [35]: 44.7%; half-life [36]: > 30 min
O=C(Nc1ccccc1Cl)c1cc2cnc(Nc3ccc(N4CCNCC4)cn3)nc2n1C1CCCC1	7.64	5.66	5.36	7.28	inhibition [5]: Active; inhibition [6]: Active
CN(C)C(=O)c1cc2cnc(Nc3ccc(N4CCNCC4)cn3)nc2n1C1CCCC1 [RIBOCICLIB]	–	4.97	4.17	–	Papp [22]: < 1 ×10⁻⁶ cm/s; Activity [23]: 5.47%; Activity [24]: 27.53%; Activity [25]: 5.5%; Activity [27]: 22.12%; Activity [28]: 4.09%; Activity [29]: 77.2%; Papp [30]: 123 ×10⁻⁶ cm/s; Activity [31]: 18.72%; half-life [32]: 146 min; solubility [33]: > 64 µg/mL; Activity [34]: 72.41%; Activity [35]: 66.97%; half-life [36]: > 30 min
CN(C)C(=O)c1cc2cnc(Nc3cccnc3)nc2n1C1CCCC1	6.50	4.59	–	–	–
COc1ccc(NC(=O)c2cc3cnc(Nc4ccc(N5CCNCC5)cn4)nc3n2C2CCCC2)c(OC)c1	7.55	5.65	5.44	6.57	–
O=C(Nc1ccccc1)c1cc2cnc(N3CCN(c4ccc(Cl)cc4)CC3)nc2n1C1CCCC1	< 4.00	< 3.70	–	–	–
CN(C)C(=O)c1cc2cnc(Nc3ccccc3)nc2n1C1CCCC1	7.03	4.26	–	–	–
O=C(c1cc2cnc(Nc3ccc(N4CCNCC4)cn3)nc2n1C1CCCC1)N1CCCCC1	6.06	4.40	–	–	–
Cc1ccccc1NC(=O)c1cc2cnc(Nc3ccc(N4CCNCC4)cn3)nc2n1C1CCCC1	7.55	5.60	5.48	7.19	inhibition [5]: Active; inhibition [6]: Active
O=C(Nc1ccc[n+]([O-])c1)c1cc2cnc(Nc3ccc(N4CCNCC4)cn3)nc2n1C1CCCC1	5.52	3.90	–	–	–
O=C(Nc1ccccc1)c1cc2cnc(Nc3ccccc3)nc2n1C1CCCC1	5.92	4.85	–	–	–
CN(C)C(=O)c1cc2cnc(NC3CCCCC3)nc2n1C1CCCC1	6.42	4.60	–	–	–
CN(C)C(=O)c1cc2cnc(Nc3ccc(N4CCNCC4)cn3)nc2n1Cc1ccccc1	< 4.00	4.52	–	–	–
O=C(Nc1ccccc1F)c1cc2cnc(Nc3ccc(N4CCNCC4)cn3)nc2n1C1CCCC1	7.34	5.44	5.08	6.43	inhibition [5]: Active; inhibition [6]: Active
CC(=O)c1c(C)c2cnc(Nc3ccc(N4CCNCC4)cn3)nc2n(C2CCCC2)c1=O [PALBOCICLIB]	–	4.97	–	–	–
